Consider 6 cell lines from the supplement of paper PMC10307832.

Common to all, as to test: relative viability (nuclei count vs DMSO), 5 days (fraction); higher = more cells survive
Compound in test [1]: COc1cc(Nc2c(C#N)cnc3cc(OCCCN4CCN(C)CC4)c(OC)cc23)c(Cl)cc1Cl [Bosutinib] + CC(=O)Nc1cccc(-n2c(=O)n(C3CC3)c(=O)c3c(Nc4ccc(I)cc4F)n(C)c(=O)c(C)c32)c1 [Trametinib] (partner 0.02 µM)
The procedure, abridged: (§1)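 Relative viability was taken as the ratio of nuclei in treated wells to nuclei in vehicle wells. Lung cancer cell lines in 1536-well plates received compounds by pin tool one day after seeding, either one drug alone or a fixed anchor-drug dose plus five library-drug doses (not always all listed) in √10 steps. Nuclei were counted on 4× images after 5 days of treatment, and values are medians of duplicate plates.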

Compound in test [2]: COc1cc(Nc2c(C#N)cnc3cc(OCCCN4CCN(C)CC4)c(OC)cc23)c(Cl)cc1Cl [Bosutinib] + CS(=O)(=O)CCNCc1ccc(-c2ccc3ncnc(Nc4ccc(OCc5cccc(F)c5)c(Cl)c4)c3c2)o1 [Lapatinib] (partner 2 µM)
A digest of the protocol:
as §1

Compound in test [3]: COc1cc(Nc2c(C#N)cnc3cc(OCCCN4CCN(C)CC4)c(OC)cc23)c(Cl)cc1Cl [Bosutinib] + NC(=O)Nc1cc(-c2cccc(F)c2)sc1C(=O)N[C@H]1CCCNC1 [AZD7762] (partner 0.2 µM)
The procedure, abridged:
as §1

Compound in test [4]: COc1cc(Nc2c(C#N)cnc3cc(OCCCN4CCN(C)CC4)c(OC)cc23)c(Cl)cc1Cl [Bosutinib] + O=C(CCCCCCC(=O)Nc1ccccc1)NO [Vorinostat] (partner 1 µM)
The procedure, abridged: as §1

Compound in test [5]: COc1cc(Nc2c(C#N)cnc3cc(OCCCN4CCN(C)CC4)c(OC)cc23)c(Cl)cc1Cl [Bosutinib]
A digest of the protocol:
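Lung cancer cell lines were seeded into 1536-well plates, kept overnight at 37 °C and pinned with five library-drug doses (not always all listed) spaced by √10. After 5 days, nuclei were Hoechst-stained, imaged at 4× and counted with MetaXpress. Viability is treated-well nuclei over vehicle-well nuclei, taken as a median across plates. Plates needed control CV below 25% and at least one doubling.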

NCI-H1975: the relative viability in test [1] (first compound 0.01 µM) turned out to be 0.29; in test [1] (first compound 0.03162 µM) it was 0.329; in test [1] (first compound 0.1 µM) it was 0.42; in test [1] (first compound 1 µM), 0.322; in test [2] (first compound 0.01 µM), 0.907; in test [2] (first compound 0.03162 µM), 0.842. Also, the relative viability in test [2] (first compound 0.1 µM) turned out to be 0.839; in test [2] (first compound 1 µM) it was 0.712; in test [3] (first compound 0.01 µM) it was 0.742; in test [3] (first compound 0.03162 µM), 0.711; in test [3] (first compound 0.1 µM), 0.642; in test [3] (first compound 1 µM) it was 0.559. The relative viability is 0.654 in test [4] (first compound 0.01 µM); 0.684 in test [4] (first compound 0.03162 µM); 0.684 in test [4] (first compound 0.1 µM); 0.673 in test [4] (first compound 1 µM); 0.992 in test [5] (0.01 µM); 0.958 in test [5] (0.03162 µM). Also, the relative viability in test [5] (0.1 µM) was 0.966; in test [5] (1 µM) it was 0.81.
On to NCI-H647, for which the relative viability in test [1] (first compound 0.01 µM) was 0.488; in test [1] (first compound 0.03162 µM), 0.483; in test [1] (first compound 0.1 µM) it was 0.375; in test [1] (first compound 1 µM), 0.221; in test [2] (first compound 0.01 µM), 1.06; in test [2] (first compound 0.03162 µM) it was 1.16. Besides, the relative viability in test [2] (first compound 0.1 µM) stood at 1.09; in test [2] (first compound 1 µM), 0.53; in test [3] (first compound 0.01 µM), 0.608; in test [3] (first compound 0.03162 µM), 0.516; in test [3] (first compound 0.1 µM) it was 0.421; in test [3] (first compound 1 µM), 0.252. In addition, the relative viability stood at 0.584 in test [4] (first compound 0.01 µM); 0.568 in test [4] (first compound 0.03162 µM); 0.667 in test [4] (first compound 0.1 µM); 0.642 in test [4] (first compound 1 µM); 1.07 in test [5] (0.01 µM); 0.933 in test [5] (0.03162 µM). The relative viability in test [5] (0.1 µM) was found to be 0.928; in test [5] (1 µM) it was 0.627.
On to A-427, for which the relative viability in test [1] (first compound 0.01 µM) amounted to 0.832; in test [1] (first compound 0.03162 µM) it was 0.822; in test [1] (first compound 0.1 µM), 0.783; in test [1] (first compound 1 µM), 0.681; in test [2] (first compound 0.01 µM) it was 1.02; in test [2] (first compound 0.03162 µM), 0.972. Besides, the relative viability was found to be 1 in test [2] (first compound 0.1 µM); 1.03 in test [2] (first compound 1 µM); 0.777 in test [3] (first compound 0.01 µM); 0.691 in test [3] (first compound 0.03162 µM); 0.661 in test [3] (first compound 0.1 µM); 0.643 in test [3] (first compound 1 µM). In addition, the relative viability is 0.87 in test [4] (first compound 0.01 µM); 0.888 in test [4] (first compound 0.03162 µM); 0.833 in test [4] (first compound 0.1 µM); 0.846 in test [4] (first compound 1 µM); 0.979 in test [5] (0.01 µM); 1.04 in test [5] (0.03162 µM). The relative viability in test [5] (0.1 µM) was determined as 1.03; in test [5] (1 µM) it was 0.926.
Consider LXF-289, for which the relative viability stood at 0.654 in test [1] (first compound 0.01 µM); 0.721 in test [1] (first compound 0.03162 µM); 0.679 in test [1] (first compound 0.1 µM); 0.751 in test [1] (first compound 1 µM); 0.881 in test [2] (first compound 0.01 µM); 0.912 in test [2] (first compound 0.03162 µM). The relative viability was 0.913 in test [2] (first compound 0.1 µM); 0.929 in test [2] (first compound 1 µM); 1.17 in test [3] (first compound 0.01 µM); 1.14 in test [3] (first compound 0.03162 µM); 1.14 in test [3] (first compound 0.1 µM); 1.02 in test [3] (first compound 1 µM). In addition, the relative viability in test [4] (first compound 0.01 µM) turned out to be 0.808; in test [4] (first compound 0.03162 µM) it was 0.852; in test [4] (first compound 0.1 µM) it was 0.792; in test [4] (first compound 1 µM), 0.758; in test [5] (0.01 µM) it was 1; in test [5] (0.03162 µM) it was 1.01. For the same cell line, the figures for the relative viability in test [5] (0.1 µM) and in test [5] (1 µM) were 1.03 and 1.01, respectively.
For the cell line NCI-H727, the relative viability in test [1] (first compound 0.01 µM) worked out at 0.377; in test [1] (first compound 0.03162 µM), 0.359; in test [1] (first compound 0.1 µM) it was 0.378; in test [1] (first compound 1 µM), 0.305; in test [2] (first compound 0.01 µM), 0.781; in test [2] (first compound 0.03162 µM), 0.767. Also, the relative viability amounted to 0.781 in test [2] (first compound 0.1 µM); 0.384 in test [2] (first compound 1 µM); 0.549 in test [3] (first compound 0.01 µM); 0.59 in test [3] (first compound 0.03162 µM); 0.641 in test [3] (first compound 0.1 µM); 0.451 in test [3] (first compound 1 µM). Moreover, the relative viability in test [4] (first compound 0.01 µM) worked out at 1.04; in test [4] (first compound 0.03162 µM), 1.27; in test [4] (first compound 0.1 µM), 1.33; in test [4] (first compound 1 µM) it was 0.973; in test [5] (0.01 µM), 0.911; in test [5] (0.03162 µM), 0.929. For the same cell line, the values for the relative viability in test [5] (0.1 µM) and in test [5] (1 µM) were 0.985 and 0.632, respectively.
NCI-H1437: the relative viability came to 0.486 in test [1] (first compound 0.01 µM); 0.403 in test [1] (first compound 0.03162 µM); 0.53 in test [1] (first compound 0.1 µM); 0.413 in test [1] (first compound 1 µM); 0.89 in test [2] (first compound 0.01 µM); 0.798 in test [2] (first compound 0.03162 µM). Further, the relative viability in test [2] (first compound 0.1 µM) worked out at 0.784; in test [2] (first compound 1 µM), 0.702; in test [3] (first compound 0.01 µM), 1.08; in test [3] (first compound 0.03162 µM), 1.07; in test [3] (first compound 0.1 µM), 1.13; in test [3] (first compound 1 µM), 0.922. Besides, the relative viability stood at 0.875 in test [4] (first compound 0.01 µM); 0.793 in test [4] (first compound 0.03162 µM); 0.842 in test [4] (first compound 0.1 µM); 0.805 in test [4] (first compound 1 µM); 1.03 in test [5] (0.01 µM); 0.974 in test [5] (0.03162 µM). Further, the relative viability in test [5] (0.1 µM) is 1.02; in test [5] (1 µM), 0.912.
